According to patent US20030165853A1, “Antisense imaging of gene expression of the brain in vivo” (The Regents of the University of California Office of …, priority 2000, published 2003):

Experiments:
[1] = rat, in vivo, iv
Protocol: Either the unconjugated anti-luciferase PNA or the anti-luciferase PNA conjugated to OX26/SA was injected intravenously into ketamine/xylazine anesthetized adult male Sprague-Dawley rats (270-300 g) by using methods described previously (10). The dose of radioactivity in these experiments was 5 μCi/rat of PNA (0.02 nmol) conjugated to 20 μg/rat of OX26/SA (0.1 nmol).

HD mRNA = assay: HD RNase protection assay; format: binding, human; details: RNase T1/A digestion, PAGE autoradiography
Protocol: The sense RNA was synthesized with T3 RNA polymerase following linearization of the plasmid with EcoRI. The transcribed RNA was radiolabeled with [^32Pα]ATP to a specific activity of 0.22 μCi/pmol, as previously described (Boado and Pardridge (1994) Bioconj. Chem., 6: 406-410). For the RNAse protection assay, 0.6 pmol of biotinylated HD-PNA or biotinylated luciferase-PNA, with or without conjugation to 6.4 pmol of MAb-SA, was added to 10^5 CPM of [^32P]-labeled sense HD RNA (0.2 pmol) in 3 μl buffer (80 mM NaCl, 7 mM phosphate buffer, pH=7.5, 0.1% BSA), and annealed for 30 minutes at 42° C. Then 20 units RNAse Ti and 2.5 μg RNAse A were added to the samples in 17 μl of RNAse digestion buffer (0.3 M NaCl, 10 mM TRIS pH=7.5, 4 mM EDTA, 0.02% tRNA, 0.02% BSA) and incubated for 30 min at 37° C. RNA fragments were analyzed by 7 M urea/20% polyacrylamide gel electrophoresis following by autoradiography as described by Pardridge et al. (1995) Proc. Natl. Acad. Sci., USA, 92:5592-5596. Labeled RNA and PNAs were heat denatured for 2 minutes at 95° C. and then incubated on ice for 2 minutes immediately before the experiment or conjugation to MAb-SA.

C6 experimental tumors = assay: Film autoradiography in rats bearing control C6 tumors not transfected with the luciferase transgene; format: in vivo, rat; details: 100 μCi i.v., brain removed at 2 h
Protocol: The C6-790 cells were implanted in the caudate-putamen nucleus of male CD Fischer 344 rats (Harlan Breeders, Indianapolis, Ind.), weighing 250-275 g under stereotaxic guidance, as described previously (Kurihara et al. (1999) Bioconjugate Chem. 10: 502-511). The animals were examined 14 days later. To confirm expression of the luciferase transgene in the tumor in vivo, tumor extracts were prepared in Promega lysis buffer, and luciferase enzyme activity was measured with luciferin as substrate (Promega) by using a Berthold (Nashua, N.H.) luminometer, as described previously (Boado and Pardridge (1998) Mol. Brain Res. 59: 109-113). A luciferase standard curve was also assayed, and the enzyme activity was expressed as picograms of luciferase equivalent per milligram of tissue protein. The C6-790 cells were grown in tissue culture as described previously (Id.), and these cells were also extracted in Promega lysis buffer for measurement of luciferase activity in the cells grown in tissue culture before implantation in brain. Control experiments were performed with C6 cells described previously (13), and these cells were used to develop brain tumors exactly as described above, except these tumor cells were not transfected with the luciferase transgene.
The brain scans and autopsy stains for three different groups of adult Fischer rats bearing the C6-790 gliomas are shown in FIG. 5. […]

C6 cells = assay: Uptake of [125I]PNA tracers in cultured C6 cells; format: cell-based, rat; details: 2-24 h incubation, TCA-precipitable cellular fraction
Protocol: (§1) The uptake of ^125I-labeled antirev or antiluciferase PNA was investigated in C6-790 and C6 cells in the presence or absence of OX26/SA. Cells were grown in 24 well dishes and incubated with 5 μCi/ml (12 nM) [^125I]PNA with and without OX26/SA (1:1 molar ratio) for 2, 4, 6, or 24 h. The monolayers were then washed 3 times in 2.5 ml cold PBS (10 mM phosphate buffer, pH 7.2/150 mM NaCl) and lysed with 250 μl reporter lysis buffer (Promega), as previously described (Boado and Pardridge (1998) Mol. Brain Res. 59: 109-113). Aliquots of samples (100 μl) and standards (10 μl) were precipitated with TCA, and the percent of medium PNA that was taken up into the TCA-precipitable cellular fraction was measured and expressed either as nanograms PNA per milligram protein or percentage uptake per milligram protein. Twenty-microliter lysate aliquots were also resolved by SDS in a 12% gel. Gels were fixed in 50% MeOH and 10% acetic acid solution for 30 min, incubated in 7% MeOH, 7% acetic acid and 1% glycerol for 5 min, and dried before autoradiography with Kodak BioMax film and intensifying screens. For the pulse-chase study, either control C6 or C6-790 cells were incubated as described above with 10 μCi/ml (24 nM) [^125I]antiluciferase PNA conjugated to OX26SA for 24 h. […] TCA-precipitable cellular radioactivity was then measured at 0, 2, 6, or 24 h of incubation.

luciferase mRNA [2] = assay: Luciferase RNase protection assay; format: binding, firefly; details: RNase A/T1 protection
Protocol: These methods were identical to those described previously (Pardridge et al. (1995) Proc. Natl. Acad. Sci., USA, 92: 5592-5596). The luciferase RNA was prepared with a luciferase transcription plasmid, designated clone 760, which has been described previously (Tsukamoto et al. (1997) J. Neurochem. 68: 2587-2592). The sense RNA was synthesized with T7 RNA polymerase after linearization of the plasmid with EcoRI. The transcribed RNA was radiolabeled with [^32Pα]ATP, and the correct size of the radiolabeled transcribed sense RNA was determined by agarose/formaldehyde gel electrophoresis followed by film autoradiography. For the RNase protection assay, 0.5 pmol of biotinylated luciferase PNA with or without conjugation to 10 pmol of OX26/SA was added to 10 5 cpm of ^32P-labeled sense luciferase RNA (8 fmol) in 3 μl buffer (50 mM NaCl/5 mM Tris, pH 8/0.5 mM EDTA) and annealed for 30 min at 56° C. Then 15 units of RNase T1 and 0.4 units of RNase A were added to samples in […] of RNase digestion buffer m (Ambion, Austin, Tex.). RNA fragments were analyzed by 7 M urea/20% PAGE and autoradiography, as described previously (Pardridge et al. (1995) Proc. Natl. Acad. Sci., USA, 92: 5592-5596). Labeled RNA and PNA were heat denatured for 2 min at 95° C. and then incubated on ice for 2 min immediately before the experiment or conjugation to OX26/SA.

C6-790 cells = assay: Uptake of [125I]PNA tracers in cultured C6-790 cells; format: cell-based, rat; details: 2-24 h incubation, TCA-precipitable cellular fraction
Protocol: as §1

luciferase mRNA [3] = assay: Film autoradiography in rats bearing C6-790 brain tumors; format: in vivo, rat; details: 100 μCi i.v., brain removed at 2 h, C6-790 gliomas in Fischer rats
Protocol: Fourteen days after implantation of C6-790 cells, the rats were anesthetized with ketamine and xylazine for i.v. injection of brain imaging agents, as described previously (Kurihara et al. (1999) Bioconjugate Chem. 10: 502-511). […] In these studies, each rat received 0.2 nmol of PNA and 40 μg (0.2 nmol) of OX26/SA. Each rat was also administered 20 mg of L-tyrosine and 2 mg of sodium iodide i.p. 15 min before the study to block brain uptake of radiolabeled metabolites such as [^125I]tyrosine or iodide. […]

[4] = target: rat transferrin receptor (rat) (UniProt Q99376); assay: cell-based or functional assay
Chain of rat transferrin receptor (rat) (Q99376 whole entry): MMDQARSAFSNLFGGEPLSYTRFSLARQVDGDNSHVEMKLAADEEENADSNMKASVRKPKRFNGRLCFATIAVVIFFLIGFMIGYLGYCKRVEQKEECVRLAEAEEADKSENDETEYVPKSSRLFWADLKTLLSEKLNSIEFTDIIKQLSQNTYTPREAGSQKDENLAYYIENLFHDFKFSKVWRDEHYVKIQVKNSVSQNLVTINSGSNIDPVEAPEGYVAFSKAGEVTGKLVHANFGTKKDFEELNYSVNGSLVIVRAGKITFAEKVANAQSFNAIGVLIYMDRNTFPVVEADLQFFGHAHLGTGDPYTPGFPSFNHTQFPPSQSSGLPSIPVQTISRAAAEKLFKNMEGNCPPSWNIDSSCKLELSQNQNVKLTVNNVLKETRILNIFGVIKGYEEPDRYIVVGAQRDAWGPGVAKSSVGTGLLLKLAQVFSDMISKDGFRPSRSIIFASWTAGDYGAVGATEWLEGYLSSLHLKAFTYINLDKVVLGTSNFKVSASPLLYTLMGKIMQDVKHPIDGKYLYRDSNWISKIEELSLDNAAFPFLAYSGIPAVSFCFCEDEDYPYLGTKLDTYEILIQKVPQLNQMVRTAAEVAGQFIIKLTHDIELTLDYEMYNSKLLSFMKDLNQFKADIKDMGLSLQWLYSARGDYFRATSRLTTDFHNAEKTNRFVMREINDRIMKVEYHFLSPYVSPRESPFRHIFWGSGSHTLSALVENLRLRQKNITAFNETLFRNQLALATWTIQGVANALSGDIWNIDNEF

Substance | plasma clearance [1] [mL/min/kg] | hybridization to HD mRNA (RNase protected fragment) (HD mRNA) | radioactivity in control C6 tumors (C6 experimental tumors) | uptake by C6 cells (C6 cells) | hybridization to luciferase sense RNA (protection of 16 mer RNA fragments) (luciferase mRNA [2]) | uptake by C6-790 cells (C6-790 cells) | imaging of luciferase gene expression in brain tumor (luciferase mRNA [3]) | uptake of [125I]PNA conjugate by cells after 24 h of incubation (ng PNA per milligram of protein) [4]
antiluciferase PNA: biotinylated 16-mer peptide nucleic acid antisense to luciferase mRNA (CTTCCATTTTACCAAC), linkers, Tyr-Lys, amidated carboxy terminus; radioiodinated (all peptide nucleic acid (PNA); biotinylated, linkers, Tyr-Lys, amidated carboxy terminus, radioiodinated) | 7.2 ± 0.4 | did not protect the RNA from nuclease digestion | no measurable radioactivity was detectable | negligible | hybridized to the luciferase sense RNA | negligible | no imaging of either normal brain or brain tumor | –
antirev PNA: control PNA antisense to the rev gene of HIV, sequence CTCCGCTTCTTCCTGCCA (all peptide nucleic acid (PNA); 125I-radiolabelled, conjugated to streptavidin-OX26 antibody, attachment not given here, further chemistry not fully specified) [reference compound] | – | – | – | negligible | – | negligible | – | –
conjugate of the OX26 mAb (mouse monoclonal antibody to the rat transferrin receptor) and recombinant streptavidin (from UniProt P22629 37-163) | – | – | – | – | – | – | – | 10
